{"source": "patent US20120172302A1", "about": "“COMPOSITION FOR THE TREATMENT OF BENIGN PROSTATE HYPERPLASIA” (priority 2009, published 2012)", "key": {"[1]": {"test_system": "patients with BPH", "experiment": "International Prostate Symptom Score (IPSS) questionnaire, clinical trial in BPH patients", "assay_type": "in vivo, men", "conditions": "for IPSS mean change from baseline / Mean IPSS score / Percentage responders (decrease in IPSS of at least 30% vs baseline): Month 6 follow up", "method": "For each patient, the following parameters were measured or assessed (using the methods discussed below), at time points of screening (e.g. −7 days) day 0 (“baseline”), day 14, day 28 and day 42:\n(§1) After the initial 6-week treatment period of the exploratory study had been completed, a 12-month follow-up period looking at long-term efficacy commenced. Interim data of the main efficacy variables (IPSS, IPSS Global QoL, prostate volume, urinary flow, and post-void residual volume—measured as set out below) after 6 months' follow-up are also presented herein Table 1, 2, 3 FIG. 1b), together with some IPSS data at 9 and 12 months (FIG. 1b).\nThe IPSS was developed in 1991 by the American Urological Association to assess the severity of urinary symptoms related to BPH (Barry, M. J., et al., The American Urological Association symptom index for benign prostatic hyperplasia. The Measurement Committee of the American Urological Association. J Urol, 1992. 148(5): p. 1549-57; discussion 1564). It has been widely used in clinical studies, has undergone extensive validation and its psychometric properties are well documented in both the original version (containing a 1-month recall) as well as the ‘acute’ version used in this study (containing a one-week recall). The WHO has recommended the use of this instrument for the evaluation of BPH and it is considered to be the internationally accepted, standard questionnaire for assessing lower urinary tract symptoms.\nThe patients were asked to complete the IPSS questionnaire to evaluate their urinary symptoms. The IPSS is a patient-administered questionnaire containing seven items to evaluate symptoms of urinary obstruction (incomplete emptying, frequency, hesitancy, urgency, weak stream, straining, nocturia) over the preceding week. Each urinary symptom question is assigned points from 0 to 5 indicating increasing severity of the particular symptom. The total score can therefore range from 0 to 35 (0-7: mildly symptomatic; 8-19: moderately symptomatic; 20-35: severely symptomatic). A reduction in score over the treatment is indicative of improvement."}, "[2]": {"test_system": "patients with BPH", "experiment": "Prostate volume by transrectal ultrasound, clinical trial", "assay_type": "in vivo, men", "from_the_text": "(§2) 2] Efficacy Endpoints—the measured Peak Urinary Flow, Post-void Residual Volume, and Prostate Volume.\nas §1\nThe prostate volume was measured by transrectal ultrasound with the patient in lateral position. The prostatic gland was sonicated from two directions perpendicular to one another resulting in three cursor positions set by the urologist. The volume was calculated automatically. The investigations were performed by urologists by methods known in the art."}, "[3]": {"test_system": "patients with BPH", "experiment": "Peak (maximal) urinary flow by flowmetry, clinical trial", "assay_type": "in vivo, men", "conditions": "for Mean maximal urinary flow: baseline", "method": "as §2\nPeak urinary flow was determined by flowmetry using the Uropower device (Wiest, World of Medicine AG, Germany). The device fulfilled the International Continence Society standards for maximum urinary flow. The measurement of urinary flow was done in sitting position.\nThe Qmax is the maximal urinary flow rate. It is the traditional parameter used in BPH trials and is a good indicator of degree of bladder outlet obstruction (BOO)."}, "[4]": {"conditions": "in vivo"}, "[5]": {"conditions": "baseline, all treatment groups combined"}, "[6]": {"conditions": "Month 6 follow-up, 32 mg group, n=7"}, "[7]": {"conditions": "Month 6 follow-up, 64 mg group, n=4"}, "[8]": {"conditions": "Month 6 follow-up, 16+16 mg group, n=6"}, "[9]": {"conditions": "Month 6 follow-up, 32+32 mg group, n=7"}, "[10]": {"conditions": "Day 42, all groups, patients violating the maximal uroflow inclusion criterion excluded"}}, "note": "Square brackets hold non-standard residues; d marks the D form. Peptide text beside a SMILES is read from it. * marks the point of attachment. dPhe(4-NHCONH2) = NC(=O)Nc1ccc(C[C@@H](N)C(=O)O)cc1; Dihydroorotyl(S) = O=C1C[C@@H](C(=O)*)NC(=O)N1; dPhe(4-Cl) = N[C@H](Cc1ccc(Cl)cc1)C(=O)O; Phe(4-NH2) = Nc1ccc(C[C@H](N)C(=O)O)cc1; d2Nal = N[C@H](Cc1ccc2ccccc2c1)C(=O)O; Lys(iPr) = CC(C)NCCCC[C@H](N)C(=O)O; d3Pal = N[C@H](Cc1cccnc1)C(=O)O", "data": [{"smiles": "CC(=O)N[C@H](Cc1ccc2ccccc2c1)C(=O)N[C@H](Cc1ccc(Cl)cc1)C(=O)N[C@H](Cc1cccnc1)C(=O)N[C@@H](CO)C(=O)N[C@@H](Cc1ccc(NC(=O)[C@@H]2CC(=O)NC(=O)N2)cc1)C(=O)N[C@H](Cc1ccc(NC(N)=O)cc1)C(=O)N[C@@H](CC(C)C)C(=O)N[C@@H](CCCCNC(C)C)C(=O)N1CCC[C@H]1C(=O)N[C@H](C)C(N)=O", "note": "[Degarelix, D-Alaninamide, N-acetyl-3-(2-naphthalenyl)-D-alanyl-4-chloro-D-phenylalanyl-3-(3-pyridinyl)-D-alanyl-L-seryl-4-[[[(4S)-hexahydro-2,6-dioxo-4-pyrimidinyl]carbonyl]amino]-L-phenylalanyl-4-[(aminocarbonyl)amino]-D-phenylalanyl-L leucyl-N6-(1-methylethyl)-L-lysyl-L-prolyl] (Ac-[d2Nal][dPhe(4-Cl)][d3Pal]S[Phe(4-NH2)](Dihydroorotyl(S))[dPhe(4-NHCONH2)]L[Lys(iPr)]P[dA]-NH2)", "values": [{"measurement": "IPSS mean change from baseline", "setting": "[1]; 16+16 mg group, n=6", "value": "−2.5 (4.3)"}, {"measurement": "Mean IPSS score", "setting": "[1]; 16+16 mg group, n=6", "value": "16.3 (4.7)"}, {"measurement": "Percentage responders (decrease in IPSS of at least 30% vs baseline)", "setting": "[1]; 16+16 mg group, n=6", "value": 33, "unit": "%"}, {"measurement": "IPSS mean change from baseline", "setting": "[1]; 32+32 mg group, n=7", "value": "−12.6 (9.6)"}, {"measurement": "Mean IPSS score", "setting": "[1]; 32+32 mg group, n=7", "value": "6.7 (4.5)"}, {"measurement": "Percentage responders (decrease in IPSS of at least 30% vs baseline)", "setting": "[1]; 32+32 mg group, n=7", "value": 86, "unit": "%"}, {"measurement": "Number of patients in IPSS category \"moderate\"", "setting": "[1]; [5]", "value": 27, "unit": "patients"}, {"measurement": "Number of patients in IPSS category \"severe\"", "setting": "[1]; [5]", "value": 23, "unit": "patients"}, {"measurement": "Mean (SD) Prostate Volume", "setting": "[2]; Baseline of 6-month follow-up patients, 32 mg group, n=7", "value": "45.9 (n = 7) mL"}, {"measurement": "Mean (SD) Prostate Volume", "setting": "[2]; Baseline of 6-month follow-up patients, 64 mg group, n=4", "value": "38.7 (n = 4) mL"}, {"measurement": "Mean (SD) Prostate Volume", "setting": "[2]; Baseline of 6-month follow-up patients, 16+16 mg group, n=6", "value": "40.8 (n = 6) mL"}, {"measurement": "Mean (SD) Prostate Volume", "setting": "[2]; Baseline of 6-month follow-up patients, 32+32 mg group, n=7", "value": "37.1 (n = 7) mL"}, {"measurement": "Mean (SD) Prostate Volume", "setting": "[2]; Baseline, 32 mg group, N=12", "value": "48.7 (21.0) mL"}, {"measurement": "Mean (SD) Prostate Volume", "setting": "[2]; Baseline, 64 mg group, N=13", "value": "38.9 (9.0) mL"}, {"measurement": "Mean (SD) Prostate Volume", "setting": "[2]; Baseline, 16+16 mg group, N=13", "value": "42.0 (12.1) mL"}, {"measurement": "Mean (SD) Prostate Volume", "setting": "[2]; Baseline, 32+32 mg group, N=12", "value": "38.1 (7.1) mL"}, {"measurement": "Prostate Volume Change from Baseline", "setting": "[2]; Day 42, 32 mg group", "value": "−13.9 (14.7) mL"}, {"measurement": "Prostate Volume Percentage Change from Baseline", "setting": "[2]; Day 42, 32 mg group", "value": "−25.1 (18.0) %"}, {"measurement": "Prostate Volume Change from Baseline", "setting": "[2]; Day 42, 64 mg group", "value": "−8.2 (10.2) mL"}, {"measurement": "Prostate Volume Percentage Change from Baseline", "setting": "[2]; Day 42, 64 mg group", "value": "−19.7 (23.2) %"}, {"measurement": "Prostate Volume Change from Baseline", "setting": "[2]; Day 42, 16+16 mg group", "value": "−7.5 (7.7) mL"}, {"measurement": "Prostate Volume Percentage Change from Baseline", "setting": "[2]; Day 42, 16+16 mg group", "value": "−17.0 (16.7) %"}, {"measurement": "Prostate Volume Change from Baseline", "setting": "[2]; Day 42, 32+32 mg group", "value": "−9.4 (9.3) mL"}, {"measurement": "Prostate Volume Percentage Change from Baseline", "setting": "[2]; Day 42, 32+32 mg group", "value": "−23.5 (20.9) %"}, {"measurement": "Prostate Volume Change from Baseline", "setting": "[2]; [6]", "value": "−11.6 (5.1) mL"}, {"measurement": "Prostate Volume Percentage Change from Baseline", "setting": "[2]; [6]", "value": "−25.6 (8.0) %"}, {"measurement": "Prostate Volume Change from Baseline", "setting": "[2]; [7]", "value": "−9.7 (10.4) mL"}, {"measurement": "Prostate Volume Percentage Change from Baseline", "setting": "[2]; [7]", "value": "−21.5 (20.6) %"}, {"measurement": "Prostate Volume Change from Baseline", "setting": "[2]; [8]", "value": "−11.2 (4.4) mL"}, {"measurement": "Prostate Volume Percentage Change from Baseline", "setting": "[2]; [8]", "value": "−27.8 (8.7) %"}, {"measurement": "Prostate Volume Change from Baseline", "setting": "[2]; [9]", "value": "−10.6 (8.8) mL"}, {"measurement": "Prostate Volume Percentage Change from Baseline", "setting": "[2]; [9]", "value": "−27.1 (17.3) %"}, {"measurement": "Number of patients with maximal urinary flow decreased vs baseline", "setting": "[3]; Day 42, all groups", "value": 25, "unit": "patients"}, {"measurement": "Number of patients with maximal urinary flow increased vs baseline", "setting": "[3]; Day 42, all groups", "value": 24, "unit": "patients"}, {"measurement": "Number of patients with maximal urinary flow unchanged vs baseline", "setting": "[3]; Day 42, all groups", "value": 1, "unit": "patient"}, {"measurement": "Number of patients with decreased uroflow", "setting": "[3]; [10]", "value": 17}, {"measurement": "Number of patients with increased uroflow", "setting": "[3]; [10]", "value": 20}, {"measurement": "Mean maximal urinary flow", "setting": "[3]; 32 mg group", "value": 11.7, "unit": "mL/s"}, {"measurement": "Mean maximal urinary flow", "setting": "[3]; 64 mg group", "value": 9.1, "unit": "mL/s"}, {"measurement": "Mean maximal urinary flow", "setting": "[3]; 16+16 mg group", "value": 10.0, "unit": "mL/s"}, {"measurement": "Mean maximal urinary flow", "setting": "[3]; 32+32 mg group", "value": 9.7, "unit": "mL/s"}, {"measurement": "Degarelix Cmax and AUC values", "setting": "[4]", "value": "higher Cmax and AUC values"}]}]}
